One assay deals with BRM (Homo sapiens, UniProt P51531). The assay can be described thus: ATPase catalytic activity assay of BRM (ADP-Glo). In kind it is biochemical. As to conditions: for IC50: read-out: BRM IC50 (μM)*. The gist of the method:
(§1)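 In vitro biochemical ATPase assay; product ADP detected after removing leftover ATP and reconverting ADP to ATP for a luciferase signal.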
(ADP-Glo first removes unused ATP, then detects ADP through luciferase.)

For the next assay, the target named is BRG-1 (Homo sapiens, UniProt P51532). The assay can be described thus: ATPase catalytic activity assay of BRG-1 (ADP-Glo). In kind it is biochemical. As to conditions: ATPase catalytic activity, ADP-Glo; for IC50: read-out: BRG1 IC50 (μM)*; for Emax: read-out: BRG1 Max % Inhibition. The method in brief:
as §1

In general, IC50 refers to the point on the concentration scale where inhibition reaches its midpoint.

The structures appear in SMILES notation. Read-outs that look alike come from different tables or passages of the source.

BRG-1, sequence (P51532 whole entry): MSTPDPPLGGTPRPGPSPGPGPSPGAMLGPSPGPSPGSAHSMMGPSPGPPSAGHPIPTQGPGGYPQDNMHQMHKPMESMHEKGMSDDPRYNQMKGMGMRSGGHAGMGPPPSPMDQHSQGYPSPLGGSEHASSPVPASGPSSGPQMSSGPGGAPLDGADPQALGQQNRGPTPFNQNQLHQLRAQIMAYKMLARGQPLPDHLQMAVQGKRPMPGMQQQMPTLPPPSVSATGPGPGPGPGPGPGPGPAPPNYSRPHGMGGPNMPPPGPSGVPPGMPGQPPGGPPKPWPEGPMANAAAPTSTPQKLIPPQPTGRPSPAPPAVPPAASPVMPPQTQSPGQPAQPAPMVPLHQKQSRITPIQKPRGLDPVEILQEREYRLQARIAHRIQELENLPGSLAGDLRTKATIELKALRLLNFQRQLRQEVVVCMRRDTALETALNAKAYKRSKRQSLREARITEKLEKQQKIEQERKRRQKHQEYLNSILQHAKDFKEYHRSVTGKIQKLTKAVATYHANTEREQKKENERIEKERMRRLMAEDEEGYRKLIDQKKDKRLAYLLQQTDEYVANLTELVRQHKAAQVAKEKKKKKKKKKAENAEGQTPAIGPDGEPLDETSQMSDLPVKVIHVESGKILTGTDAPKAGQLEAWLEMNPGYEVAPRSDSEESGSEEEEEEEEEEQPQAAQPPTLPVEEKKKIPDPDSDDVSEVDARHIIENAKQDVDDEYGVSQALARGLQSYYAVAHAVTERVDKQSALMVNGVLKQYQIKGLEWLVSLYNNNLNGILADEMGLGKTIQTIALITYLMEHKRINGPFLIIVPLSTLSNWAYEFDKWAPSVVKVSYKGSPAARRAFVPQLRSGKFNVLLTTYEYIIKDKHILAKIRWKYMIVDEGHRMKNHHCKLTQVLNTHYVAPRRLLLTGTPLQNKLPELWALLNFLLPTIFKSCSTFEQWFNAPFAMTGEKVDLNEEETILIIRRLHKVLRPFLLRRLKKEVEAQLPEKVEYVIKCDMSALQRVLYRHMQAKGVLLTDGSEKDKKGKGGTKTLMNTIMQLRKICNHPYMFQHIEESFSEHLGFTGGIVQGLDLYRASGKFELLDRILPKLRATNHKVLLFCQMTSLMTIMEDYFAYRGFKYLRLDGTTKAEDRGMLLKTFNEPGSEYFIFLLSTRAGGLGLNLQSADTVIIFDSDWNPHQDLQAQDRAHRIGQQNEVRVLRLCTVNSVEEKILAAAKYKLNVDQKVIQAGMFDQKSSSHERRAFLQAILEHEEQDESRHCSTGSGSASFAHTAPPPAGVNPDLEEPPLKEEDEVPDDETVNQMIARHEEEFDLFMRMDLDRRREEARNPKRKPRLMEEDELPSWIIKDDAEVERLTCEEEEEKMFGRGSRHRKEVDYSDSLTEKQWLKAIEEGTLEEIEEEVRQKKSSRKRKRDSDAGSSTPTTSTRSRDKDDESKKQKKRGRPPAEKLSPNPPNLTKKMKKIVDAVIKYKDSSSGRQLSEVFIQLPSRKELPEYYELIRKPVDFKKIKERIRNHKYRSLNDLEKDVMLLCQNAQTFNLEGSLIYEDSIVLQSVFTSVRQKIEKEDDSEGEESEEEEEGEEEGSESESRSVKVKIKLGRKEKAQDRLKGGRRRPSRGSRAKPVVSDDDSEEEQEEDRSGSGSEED
BRM, sequence (P51531 whole entry): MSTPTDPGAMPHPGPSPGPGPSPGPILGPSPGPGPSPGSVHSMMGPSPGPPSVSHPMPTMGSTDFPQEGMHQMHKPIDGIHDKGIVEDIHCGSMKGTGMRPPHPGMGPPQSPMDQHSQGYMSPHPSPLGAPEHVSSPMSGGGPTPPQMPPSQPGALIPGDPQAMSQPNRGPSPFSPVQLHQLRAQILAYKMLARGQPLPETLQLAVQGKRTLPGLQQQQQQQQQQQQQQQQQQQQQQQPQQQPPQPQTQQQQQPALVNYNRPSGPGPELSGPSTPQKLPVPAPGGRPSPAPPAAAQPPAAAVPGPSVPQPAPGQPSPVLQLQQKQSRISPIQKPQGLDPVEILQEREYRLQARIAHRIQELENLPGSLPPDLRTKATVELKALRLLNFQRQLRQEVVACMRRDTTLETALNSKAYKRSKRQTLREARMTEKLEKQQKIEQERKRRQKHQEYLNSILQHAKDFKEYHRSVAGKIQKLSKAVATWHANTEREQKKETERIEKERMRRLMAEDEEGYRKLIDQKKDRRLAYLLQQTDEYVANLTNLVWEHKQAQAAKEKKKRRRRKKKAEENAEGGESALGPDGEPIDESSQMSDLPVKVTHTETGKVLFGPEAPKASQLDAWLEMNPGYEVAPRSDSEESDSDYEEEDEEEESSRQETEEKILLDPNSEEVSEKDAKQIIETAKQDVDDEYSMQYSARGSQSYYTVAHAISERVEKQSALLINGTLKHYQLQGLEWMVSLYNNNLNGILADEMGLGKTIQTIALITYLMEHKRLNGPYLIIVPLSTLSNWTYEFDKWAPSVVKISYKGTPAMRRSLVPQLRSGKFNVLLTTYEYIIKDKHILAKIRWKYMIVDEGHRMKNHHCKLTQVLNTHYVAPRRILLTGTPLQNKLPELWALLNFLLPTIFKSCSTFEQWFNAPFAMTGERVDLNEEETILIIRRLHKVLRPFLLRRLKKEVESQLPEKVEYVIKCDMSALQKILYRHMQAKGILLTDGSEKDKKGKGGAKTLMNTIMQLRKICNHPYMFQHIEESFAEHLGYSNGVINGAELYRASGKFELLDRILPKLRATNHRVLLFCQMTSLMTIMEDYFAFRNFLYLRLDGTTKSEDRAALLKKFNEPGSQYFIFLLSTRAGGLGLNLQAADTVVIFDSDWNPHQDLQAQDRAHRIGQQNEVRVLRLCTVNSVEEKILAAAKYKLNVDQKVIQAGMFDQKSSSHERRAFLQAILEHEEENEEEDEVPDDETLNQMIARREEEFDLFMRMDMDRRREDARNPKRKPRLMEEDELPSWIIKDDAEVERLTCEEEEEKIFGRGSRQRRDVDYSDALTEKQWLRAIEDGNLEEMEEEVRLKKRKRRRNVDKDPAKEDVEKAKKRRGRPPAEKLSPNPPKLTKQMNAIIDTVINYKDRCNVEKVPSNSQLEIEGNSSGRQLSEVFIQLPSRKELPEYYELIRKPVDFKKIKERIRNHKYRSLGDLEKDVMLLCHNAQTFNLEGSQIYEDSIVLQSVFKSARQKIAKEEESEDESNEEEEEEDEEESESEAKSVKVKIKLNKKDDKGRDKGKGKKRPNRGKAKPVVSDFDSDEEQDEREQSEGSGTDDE

Take `COc1cc(F)cc(-c2csc(NC(=O)CNC(=O)c3ccc4c(c3)[C@](C)(C#N)COC4)n2)c1` [Compound 377, (R)-4-cyano-N-(2-((4-(3-fluoro-5-methoxyphenyl)thiazol-2-yl)amino)-2-oxoethyl)-4-methylisochromane-6-carboxamide]: on BRM, the “BRM Max % Inhibition” value is given as greater than 95% and the IC50 was less than 0.1 µM. For the same compound, at BRG-1, the IC50 was less than 0.1 µM and the Emax was greater than 95%.
`C[C@@H]1CN(c2cccc(-c3csc(NC(=O)CNC(=O)c4ccc5c(c4)S(=O)(=O)CCCC5)n3)c2)C[C@H](C)O1` [Compound 128, N-(2-((4-(3-((cis)-2,6-dimethylmorpholino)phenyl)thiazol-2-yl)amino)-2-oxoethyl)-2,3,4,5-tetrahydrobenzo[b]thiepine-8-carboxamide 1,1-dioxide]: on BRM, the “BRM Max % Inhibition” value was greater than 95% and the IC50 was less than 0.1 µM. Moreover, at BRG-1, the IC50 is less than 0.1 µM and the Emax is greater than 95%.
Turning to `Cc1cc(-c2cccc(-c3csc(NC(=O)CNC(=O)c4cccc(C(C)(C)C(C)C)c4)n3)c2)cc(C)n1` [Compound 90], on BRM, the “BRM Max % Inhibition” value is greater than 60% and the concentration for half-maximal inhibition (IC50) fell in the range of 1 to 5 µM. Moreover, on BRG-1, the IC50 is greater than 5 µM and the Emax is less than 30%.
As to `Cn1ccc2ccc(-c3csc(NC(=O)CNC(=O)c4cccc(C5(C#N)CCC5)c4)n3)cc2c1=O` [Compound 147, 3-(1-cyanocyclobutyl)-N-(2-((4-(2-methyl-1-oxo-1,2-dihydroisoquinolin-7-yl)thiazol-2-yl)amino)-2-oxoethyl)benzamide], at BRM, the “BRM Max % Inhibition” value was greater than 90% and the IC50 was 0.1 to 1 µM. Also, at BRG-1, the IC50 was in the range of 1 to 5 µM and the Emax was greater than 80%.
Regarding `NCC1(c2cccc(C(=O)NCC(=O)Nc3nc(-c4cccc(-c5ccncc5)c4)cs3)c2)CC1` [Compound 72, 3-(1-(aminomethyl)cyclopropyl)-N-(2-oxo-2-((4-(3-(pyridin-4-yl)phenyl)thiazol-2-yl)amino)ethyl)benzamide], on BRM, the “BRM Max % Inhibition” value is greater than 80% and the IC50 lay in the range of 0.1 to 1 µM. At BRG-1, the IC50 was greater than 5 µM and the Emax was greater than 50%.
As for `C[C@@]1(CO)CCc2ccc(C(=O)NCC(=O)Nc3nc(-c4cccc(-c5cccnc5O)n4)cs3)cc21` [Compound 264, (R)-N-(2-((4-(2′-hydroxy-[2,3′-bipyridin]-6-yl)thiazol-2-yl)amino)-2-oxoethyl)-3-(hydroxymethyl)-3-methyl-2,3-dihydro-1H-indene-5-carboxamide], on BRM, the “BRM Max % Inhibition” value is on record as greater than 70% and the half-inhibitory concentration (IC50) lay within 1 to 5 µM. On BRG-1, the IC50 was greater than 5 µM and the Emax is less than 30%.
With `CC1(C#N)CCOc2ccc(C(=O)NCC(=O)Nc3nc(-c4cccc(-c5ccncc5)c4)cs3)cc21` (stereo in doubt) [Compound 440, (S)-4-cyano-4-methyl-N-(2-oxo-2-((4-(3-(pyridin-4-yl)phenyl)thiazol-2-yl)amino)ethyl)chromane-6-carboxamide], on BRM (30 nM BRM, 400 μM ATP), the “BRM Max % Inhibition” value is given as greater than 95% and the IC50 is less than 0.1 µM. On BRG-1 (30 nM BRG-1, 400 μM ATP), the half-inhibitory concentration (IC50) was less than 0.1 µM and the Emax was greater than 95%.
With `COc1cc(F)cc(-c2csc(NC(=O)CNC(=O)c3ccc4c(c3)[C@](C)(F)COC4)n2)c1` [Compound 337, (S)-4-fluoro-N-(2-((4-(3-fluoro-5-methoxyphenyl)thiazol-2-yl)amino)-2-oxoethyl)-4-methylisochromane-6-carboxamide], at BRM, the “BRM Max % Inhibition” value was greater than 95% and the IC50 was less than 0.1 µM. In addition, at BRG-1, the IC50 was less than 0.1 µM and the Emax is greater than 95%.
Take `CC(C)(CN)c1cccc(C(=O)NCC(=O)Nc2nc(-c3cccc(-c4cccc(CN)c4)c3)cs2)c1` [Compound 209, 3-(2-amino-1,1-dimethyl-ethyl)-N-[2-[[4-[3-[3-(aminomethyl)phenyl]phenyl]thiazol-2-yl]amino]-2-oxo-ethyl]benzamide]: on BRM, the “BRM Max % Inhibition” value is given as greater than 90% and the concentration for half-maximal inhibition (IC50) was in the range of 0.1 to 1 µM. For the same compound, on BRG-1, the half-inhibitory concentration (IC50) is 1 to 5 µM and the Emax was greater than 50%.
Turning to `C[C@]1(CN)CCc2c(C(=O)NCC(=O)Nc3nc(-c4cccc(-c5ccncc5)c4)cs3)cccc21` [Compound 243, (1S)-1-(aminomethyl)-1-methyl-N-[2-oxo-2-[[4-[3-(4-pyridyl)phenyl]thiazol-2-yl]amino]ethyl]indane-4-carboxamide], at BRM, the “BRM Max % Inhibition” value is reported as greater than 80% and the half-maximal inhibitory concentration (IC50) lay in the range of 0.1 to 1 µM. In addition, on BRG-1, the IC50 was 1 to 5 µM and the Emax is greater than 50%.
The like results for `CC(C)S(=O)(=O)c1cccc(C(=O)NCC(=O)Nc2nc(-c3cccc(-c4ccnc(CN)c4)c3)cs2)c1` [Compound 124, N-[2-[[4-[3-[2-(aminomethyl)-4-pyridyl]phenyl]thiazol-2-yl]amino]-2-oxo-ethyl]-3-isopropylsulfonyl-benzamide] were, in that order, greater than 90%, 0.1 to 1 µM, 1 to 5 µM and greater than 70%.
`C[C@@H]1CN(c2cccc(-c3csc(NC(=O)CNC(=O)c4cccc5c4OCC[C@]5(C)C#N)n3)c2)C[C@H](C)O1` [Compound 148, (S)-4-cyano-N-(2-((4-(3-((cis)-2,6-dimethylmorpholino)phenyl)thiazol-2-yl)amino)-2-oxoethyl)-4-methylchroman-8-carboxamide]: at BRM, the “BRM Max % Inhibition” value is given as greater than 70% and the IC50 was in the range of 0.1 to 1 µM. Also, at BRG-1, the IC50 was greater than 5 µM and the Emax was greater than 30%.
The like results for `Cc1cc(-c2cccc(-c3csc(NC(=O)CNC(=O)c4ccc5c(c4)[C@@](C)(CN)CCC5)n3)c2)cc(C)n1` [Compound 251, (4S)-4-(aminomethyl)-N-[2-[[4-[3-(2,6-dimethyl-4-pyridyl)phenyl]thiazol-2-yl]amino]-2-oxo-ethyl]-4-methyl-tetralin-6-carboxamide] were, in that order, greater than 50%, 1 to 5 µM, greater than 5 µM and less than 30%.
For `CN1CCOc2ccc(-c3csc(NC(=O)CNC(=O)c4ccc5c(c4)[C@](C)(CO)CC5)n3)cc21` [Compound 173, (R)-3-(hydroxymethyl)-3-methyl-N-(2-((4-(4-methyl-3,4-dihydro-2H-benzo[b][1,4]oxazin-6-yl)thiazol-2-yl)amino)-2-oxoethyl)-2,3-dihydro-1H-indene-5-carboxamide], at BRM, the “BRM Max % Inhibition” value is recorded as greater than 95% and the IC50 was in the range of 0.1 to 1 µM. On BRG-1, the IC50 fell in the range of 0.1 to 1 µM and the Emax was greater than 80%.
`CC(C)S(=O)(=O)c1cccc(C(=O)NCC(=O)Nc2nc(-c3cccc(-c4ccnc(C(F)(F)F)c4)c3)cs2)c1` [Compound 19, 3-(isopropylsulfonyl)-N-(2-oxo-2-((4-(3-(2-(trifluoromethyl)pyridin-4-yl)phenyl)thiazol-2-yl)amino)ethyl)benzamide]: on BRM, the “BRM Max % Inhibition” value is given as greater than 90% and the IC50 was in the range of 0.1 to 1 µM. For the same compound, at BRG-1, the IC50 lay in the range of 1 to 5 µM.
As to `Cc1cc(C(=O)NCC(=O)Nc2nc(-c3cccc(-c4ccncc4)c3)cs2)cc(S(=O)(=O)C(C)C)c1C` [Compound 16, 3-(isopropylsulfonyl)-4,5-dimethyl-N-(2-oxo-2-((4-(3-(pyridin-4-yl)phenyl)thiazol-2-yl)amino)ethyl)benzamide], on BRM, the “BRM Max % Inhibition” value was greater than 70% and the half-inhibitory concentration (IC50) fell in the range of 0.1 to 1 µM. In addition, at BRG-1, the IC50 is greater than 5 µM and the Emax was less than 30%.
The like results for `C[C@@H]1CN(c2cccc(-c3csc(NC(=O)CNC(=O)c4ccc5c(c4)[C@@](C)(CO)CO5)n3)n2)C[C@H](C)O1` (single isomer, unassigned) [Compound 133] were, in that order, greater than 95%, 0.1 to 1 µM, 1 to 5 µM and greater than 70%.
With `C[C@]1(CO)CCc2ccc(C(=O)NCC(=O)Nc3nc(-c4ccn5ccnc5c4)cs3)cc21` [Compound 259, (S)-3-(hydroxymethyl)-N-(2-((4-(imidazo[1,2-a]pyridin-7-yl)thiazol-2-yl)amino)-2-oxoethyl)-3-methyl-2,3-dihydro-1H-indene-5-carboxamide], on BRM, the “BRM Max % Inhibition” value was greater than 50% and the IC50 was 1 to 5 µM. On BRG-1, the “BRG1 Max % Inhibition” value is less than 30% and the IC50 was greater than 5 µM.
As for `CC(C)(C(N)=O)c1cccc(C(=O)NCC(=O)Nc2nc(-c3cccc(-c4ccncc4)c3)cs2)c1` [Compound 84, 3-(1-amino-2-methyl-1-oxopropan-2-yl)-N-(2-oxo-2-((4-(3-(pyridin-4-yl)phenyl)thiazol-2-yl)amino)ethyl)benzamide], on BRM, the “BRM Max % Inhibition” value is recorded as greater than 95% and the half-maximal inhibitory concentration (IC50) is 0.1 to 1 µM. Also, at BRG-1, the half-maximal inhibitory concentration (IC50) lay in the range of 1 to 5 µM and the Emax was greater than 90%.
`C[C@@]1(C#N)COCc2ccc(C(=O)NCC(=O)Nc3nc(-c4cccc([C@H]5CCO5)c4)cs3)cc21` [Compound 359, (R)-4-cyano-4-methyl-N-(2-((4-(3-((trans)-oxetan-2-yl)phenyl)thiazol-2-yl)amino)-2-oxoethyl)isochromane-6-carboxamide]: at BRM, the “BRM Max % Inhibition” value is greater than 95% and the IC50 is less than 0.1 µM. Moreover, on BRG-1, the half-maximal inhibitory concentration (IC50) fell in the range of 0.1 to 1 µM and the Emax was greater than 95%.
Regarding `CC(C)(CN)c1cccc(C(=O)NCC(=O)Nc2nc(-c3cccc(-c4cccc(Cl)c4)c3)cs2)c1` [Compound 54, 3-(1-amino-2-methylpropan-2-yl)-N-(2-((4-(3′-chloro-[1,1′-biphenyl]-3-yl)thiazol-2-yl)amino)-2-oxoethyl)benzamide], at BRM, the “BRM Max % Inhibition” value is on record as greater than 80% and the half-inhibitory concentration (IC50) is 1 to 5 µM. On BRG-1, the concentration for half-maximal inhibition (IC50) was 1 to 5 µM and the Emax was greater than 50%.

Values taken from patent US12685735B2 (Foghorn Therapeutics Inc., priority 2020, dated 2026).
